Measurements reported in ChEMBL document CHEMBL1201862, “PubChem BioAssay data set” (2004).
Active and inactive are the calls of the source.

Experiments:
[1] = Luminescence-based cell-based high throughput dose response assay to identify activators of the DAF-12 from the parasite S. stercoralis (ssDAF-12).; type: functional
[2] = biological target: T1, Oxysterols receptor LXR-beta (Homo sapiens, UniProt P55055); assay: LXR agonists, Gal4 luciferase reporter, dose response, counter-screen for ssDAF-12 agonist project, cell-based, luminescence, HEK293, S. stercoralis campaign (AID 720737); type: functional; settings: read-out: IC50 (the source's name)
T1 sequence (P55055 whole entry): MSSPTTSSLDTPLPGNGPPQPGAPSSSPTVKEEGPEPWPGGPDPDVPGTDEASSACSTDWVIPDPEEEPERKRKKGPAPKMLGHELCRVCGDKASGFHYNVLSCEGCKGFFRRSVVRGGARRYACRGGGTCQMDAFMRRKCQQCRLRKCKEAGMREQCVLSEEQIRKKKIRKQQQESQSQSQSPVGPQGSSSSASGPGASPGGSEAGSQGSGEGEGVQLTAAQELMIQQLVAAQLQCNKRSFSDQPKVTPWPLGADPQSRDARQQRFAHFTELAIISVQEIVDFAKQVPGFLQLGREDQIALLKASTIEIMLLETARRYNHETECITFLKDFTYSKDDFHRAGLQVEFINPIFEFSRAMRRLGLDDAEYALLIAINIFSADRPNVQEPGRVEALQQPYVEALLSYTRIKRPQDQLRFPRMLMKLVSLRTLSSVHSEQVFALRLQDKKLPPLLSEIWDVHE

[3] = cytotoxicity toward NIH3T3 fibroblasts, dose response, counter-screen, cell-based, ATP luminescence, mouse fibroblasts (AID 2010); type: functional;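 note: cells exposed to compound for about 90 hours before reading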
[4] = inhibitors of intracellular T. cruzi replication, confirmation, NIH3T3 host cells, beta-gal luminescence (AID 2044); type: functional, cell-based;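 note: intracellular parasites grown in NIH/3T3 mouse fibroblasts as host cells; luminescent beta-galactosidase reporter signal from transgenic T. cruzi replicating inside host cells; inhibitors lower the luminescence signal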
[5] = A549 cell cytotoxicity, dose response, CellTiter-Glo luminescence, dry powder, set 17 (AID 1117284); type: functional, cell-based
[6] = A549 cell cytotoxicity, dose response, cytotoxicity control, 24 h, CellTiter-Glo luminescence, cherry-picks (AID 1053115); type: functional, cell-based; settings: A549, 24 h
Bcl-2-related protein A1 [7] = biological target: T2, Bcl-2-related protein A1 (Mus musculus, UniProt Q07440); assay: Bfl-1 binding inhibitors, SAR follow-up, biochemical, fluorescence polarization (AID 1070)
T2 sequence (Q07440 whole entry): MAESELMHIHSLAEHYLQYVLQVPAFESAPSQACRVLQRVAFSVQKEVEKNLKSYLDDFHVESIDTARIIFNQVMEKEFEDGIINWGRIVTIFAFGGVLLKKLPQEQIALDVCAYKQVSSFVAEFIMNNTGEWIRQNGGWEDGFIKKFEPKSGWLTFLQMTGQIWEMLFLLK

Bcl-2-related protein A1 [8] = biological target: T2, Bcl-2-related protein A1; assay: Bfl-1 inhibitors blocking BH3 peptide binding, confirmation, biochemical, TR-FRET, mouse Bfl-1 (AID 621);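 note: TR-FRET binding of GST-Bfl-1 to FITC-labelled Bid peptide via terbium antibody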
HeLa = assay: HeLa cell cytotoxicity, dose response, cytotoxicity control for MITF activator project, CellTiter-Glo luminescence, cherry-pick samples (AID 540259); type: functional, cell-based; settings: Homo sapiens
[9] = Luminescence Cell-Based Dose Confirmation to Identify Activators of 5'UTR Stem-Loop Driven Alpha-Synuclein mRNA Translation in H4 Neuroglioblastoma Cells. [Related pubchem assays: 1829 (Project Summary), 1814 (Primary HTS)]; type: functional
[10] = Luminescence Cell-Based Dose Response HTS to Identify Activators of Luciferase Translation or Activity in H4 […] Cells. [Related pubchem assays: 1829 (Project Summary), 1814 (Primary HTS)]; type: functional
[11] = Luminescence Cell-Based Dose Response to Identify Activators of Luciferase Translation or Activity in H4-C Neuroglioblastoma Cells. [Related pubchem assays: 1829 (Project Summary), 1814 (Primary HTS)]; type: functional
[12] = Luminescence Cell-Based Dose Response to Identify Activators of 5'UTR Stem-Loop Driven Prion Protein mRNA Translation in H4-C Neuroglioblastoma Cells. [Related pubchem assays: 1829 (Project Summary), 1814 (Primary HTS)]; type: functional
[13] = biological target: T3, Dual specificity protein phosphatase 6 (Rattus norvegicus, UniProt Q64346); assay: MKP-3 phosphatase inhibitors, primary screen, biochemical, rat enzyme, in vitro (AID 425)
T3 sequence (Q64346 whole entry): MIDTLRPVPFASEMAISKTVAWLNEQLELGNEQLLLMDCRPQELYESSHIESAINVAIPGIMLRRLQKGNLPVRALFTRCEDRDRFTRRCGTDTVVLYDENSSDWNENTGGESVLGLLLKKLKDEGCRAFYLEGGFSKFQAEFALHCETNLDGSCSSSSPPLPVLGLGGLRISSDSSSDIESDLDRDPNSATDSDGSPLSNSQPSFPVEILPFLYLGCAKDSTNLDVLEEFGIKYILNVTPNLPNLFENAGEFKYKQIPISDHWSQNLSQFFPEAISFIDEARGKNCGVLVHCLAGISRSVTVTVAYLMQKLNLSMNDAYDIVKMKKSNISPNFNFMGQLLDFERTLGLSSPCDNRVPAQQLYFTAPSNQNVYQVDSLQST

[14] = biological target: Induced myeloid leukemia cell differentiation protein Mcl-1 (Homo sapiens, UniProt Q07820); type: functional
Induced myeloid leukemia cell differentiation protein Mcl-1, sequence (Q07820 whole entry): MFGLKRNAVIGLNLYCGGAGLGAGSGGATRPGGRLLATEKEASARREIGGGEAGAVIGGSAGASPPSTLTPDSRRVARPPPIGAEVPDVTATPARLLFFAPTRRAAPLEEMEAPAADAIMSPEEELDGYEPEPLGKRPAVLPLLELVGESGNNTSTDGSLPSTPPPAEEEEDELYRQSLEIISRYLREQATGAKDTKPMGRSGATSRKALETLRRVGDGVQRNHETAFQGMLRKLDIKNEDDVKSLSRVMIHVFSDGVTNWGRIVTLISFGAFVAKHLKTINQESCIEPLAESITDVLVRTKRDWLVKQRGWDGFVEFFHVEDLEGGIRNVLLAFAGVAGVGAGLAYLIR

Protein Tat = Protein Tat (Human immunodeficiency virus type 1 group M subtype B (isolate HXB2)(HIV-1), UniProt P04608); type: functional;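 note: tat binding to TAR RNA read out by fluorescence polarization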
Protein Tat, sequence (P04608 whole entry): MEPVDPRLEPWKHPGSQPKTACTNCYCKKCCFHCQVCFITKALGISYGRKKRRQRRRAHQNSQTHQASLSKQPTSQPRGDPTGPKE

[15] = biological target: Eukaryotic translation initiation factor 4E (Mus musculus, UniProt P63073); assay: eIF4E–eIF4G protein interaction inhibitors, dose response, biochemical, TR-FRET (AID 855); type: functional;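 note: potency for disrupting eIF4E binding to eIF4GI seen as loss of FRET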
Eukaryotic translation initiation factor 4E, sequence (P63073 whole entry): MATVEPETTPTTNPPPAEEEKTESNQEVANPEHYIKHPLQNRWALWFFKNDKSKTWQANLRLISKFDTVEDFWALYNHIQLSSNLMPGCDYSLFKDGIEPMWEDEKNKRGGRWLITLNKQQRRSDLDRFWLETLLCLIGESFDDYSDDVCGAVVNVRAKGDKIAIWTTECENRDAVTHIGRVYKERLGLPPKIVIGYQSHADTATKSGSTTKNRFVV

[16] = P. falciparum Dd2 growth inhibitors, dose response, SYBR Green, dry powder samples, set 9 (AID 1159568); type: functional, cell-based
[17] = inhibitors of clade B AD8 Env fusion, dose response, cell-based, cherry-pick (AID 652062); type: functional;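 note: luciferase signal from cell-cell fusion driven by HIV-1 clade B AD8 Env; potency is for inhibitors of fusion seen as a drop in luminescence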
[18] = P. falciparum Dd2 growth inhibitors, dose response, SYBR Green, cherry-picked samples (AID 1159567); type: functional, cell-based
[19] = HepG2 cell cytotoxicity, dose response, cytotoxicity control, plate reader, dry powder samples (AID 1159569); type: functional, cell-based;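 note: inhibitor potency with signal falling toward the positive control level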
[20] = P. falciparum Dd2 growth inhibitors, dose response, SYBR Green, dry powder samples (AID 1159566); type: functional, cell-based;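 note: potency for growth inhibition with lower SYBR green DNA signal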
[21] = P. falciparum ATP4 D1247Y mutant growth inhibitors, dose response, NITD609-resistant line, SYBR Green, dry powder (AID 1159571); type: functional, cell-based;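 note: parasites synchronized at ring stage by sorbitol before testing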
[22] = P. falciparum 3D7-ScDHODH growth inhibitors, dose response, SYBR Green, dry powder samples (AID 1159570); type: functional, cell-based;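 note: parasite growth measured after 72 hours of compound exposure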
[23] = HEK293T cytotoxicity, dose response, cytotoxicity control for miR-122 modulator project, cell-based, inhibitor set, cherry-pick, set 2 (AID 720697); type: functional
[24] = HEK293T cytotoxicity, dose response, cytotoxicity control for miR-122 modulator project, cell-based, activator set, cherry-pick (AID 720690); type: functional;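 note: HEK293T human cells scored for general mammalian cytotoxicity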
Paired box protein Pax-8 = Paired box protein Pax-8 (Homo sapiens, UniProt Q06710); assay: inhibitors of PAX8-driven TPO luciferase reporter, dose response, RMG-I cells, cherry-pick (AID 687027); type: functional, cell-based;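 note: luciferase reporter driven by Pax8 target thyroperoxidase promoter measured by SteadyGlo luminescence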
Paired box protein Pax-8, sequence (Q06710 whole entry): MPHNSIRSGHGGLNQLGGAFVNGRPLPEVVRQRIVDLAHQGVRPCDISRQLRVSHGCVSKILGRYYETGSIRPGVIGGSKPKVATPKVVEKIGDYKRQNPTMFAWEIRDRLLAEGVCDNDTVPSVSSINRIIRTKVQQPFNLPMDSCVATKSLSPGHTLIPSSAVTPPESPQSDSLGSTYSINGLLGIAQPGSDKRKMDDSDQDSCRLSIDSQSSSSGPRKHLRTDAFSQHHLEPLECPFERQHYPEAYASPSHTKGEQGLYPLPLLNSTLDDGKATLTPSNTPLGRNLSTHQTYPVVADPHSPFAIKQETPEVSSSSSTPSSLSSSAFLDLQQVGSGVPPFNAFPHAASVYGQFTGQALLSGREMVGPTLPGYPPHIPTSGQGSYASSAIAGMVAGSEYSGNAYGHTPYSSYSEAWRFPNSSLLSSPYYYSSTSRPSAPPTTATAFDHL

[25] = miR-122 activators in hepatoma reporter cells, dose response, cell-based, Huh7 psiCHECK-miR122, Renilla luciferase, cherry-picked (AID 651956); type: functional;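 note: huh7 hepatoma cells stably carrying a psiCHECK-2 miR-122 sensor plasmid; renilla luciferase signal reporting endogenous miR-122 activity after 48 h compound exposure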
[26] = biological target: T4, Tyrosine-protein phosphatase non-receptor type 7 (Homo sapiens, UniProt P35236); assay: inhibitors of human HePTP phosphatase, […], biochemical, absorbance, leukemia target (AID 521); type: functional
T4 sequence (P35236 whole entry): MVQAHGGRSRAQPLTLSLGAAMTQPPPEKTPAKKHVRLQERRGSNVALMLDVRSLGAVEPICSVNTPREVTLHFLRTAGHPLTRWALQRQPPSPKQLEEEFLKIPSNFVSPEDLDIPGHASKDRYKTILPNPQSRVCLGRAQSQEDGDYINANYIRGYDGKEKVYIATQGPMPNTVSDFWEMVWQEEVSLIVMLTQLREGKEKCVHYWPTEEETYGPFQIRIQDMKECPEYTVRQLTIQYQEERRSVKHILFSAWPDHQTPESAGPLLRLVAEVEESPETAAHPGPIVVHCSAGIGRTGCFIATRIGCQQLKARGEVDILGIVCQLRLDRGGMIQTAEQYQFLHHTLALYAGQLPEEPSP

[27] = ZM109 Env clade C HIV-1 fusion inhibitors, dose response, HeLa effector, CEM target cells, luciferase, cherry-pick (AID 652058); type: functional, cell-based
[28] = control 3'UTR Renilla luciferase suppression, dose response, counter-screen for Shn3 inhibitor project, cell-based, Clone20-Shn3RL, cherry-picked (AID 624133); type: functional
INS1 = assay: beta cell apoptosis inhibitors, cytokine rescue, dose response, luminescence, retest (AID 449756); type: functional, cell-based; settings: Rattus norvegicus;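 note: cell death triggered by IL-1 beta plus TNF-alpha plus IFN-gamma mixture; protective hits raise ATP signal compared with cytokine alone wells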
Protein Wnt-3a = Protein Wnt-3a (Mus musculus, UniProt P27467); assay: Wnt3a-driven reporter signaling inhibition, dose response, selectivity assay for Gli-SUFU antagonist project, Wnt-LIGHT cells, luminescence (AID 651570); type: functional; settings: read-out: IC50_Mean;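 note: Wnt-LIGHT reporter cells stimulated with conditioned medium from Wnt3a-producing cells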
Protein Wnt-3a, sequence (P27467 whole entry, the tested form may be a part): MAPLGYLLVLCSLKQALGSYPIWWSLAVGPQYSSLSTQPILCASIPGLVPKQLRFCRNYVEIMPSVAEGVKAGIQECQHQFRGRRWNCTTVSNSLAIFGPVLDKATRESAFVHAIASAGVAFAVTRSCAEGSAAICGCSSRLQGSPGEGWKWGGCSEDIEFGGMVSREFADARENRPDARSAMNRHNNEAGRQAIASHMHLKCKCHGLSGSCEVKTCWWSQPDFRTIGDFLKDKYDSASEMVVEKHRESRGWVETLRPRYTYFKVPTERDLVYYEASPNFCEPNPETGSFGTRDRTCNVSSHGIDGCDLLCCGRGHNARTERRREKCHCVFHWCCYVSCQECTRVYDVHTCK

[29] = inhibitors of HIV Env-driven cell fusion, dose response, cherry-pick (AID 652057); type: functional, cell-based
[30] = Shn3 3'UTR reporter inhibitors, dose response, cell-based, Clone20 osteoblasts, firefly luciferase, cherry-picked (AID 624132); type: functional;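 note: firefly luciferase luminescence from reporter carrying the Shn3 3'UTR in osteoblasts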
[31] = off-target signal loss in HeLa-CEM21 co-culture – HeLa F-luc CTL cells, cherry-picked, counter-screen for HIV-1 Env fusion inhibitor project, dose response (AID 652040); type: functional, cell-based;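 note: potency for signal decrease marking cytotoxic or nonspecific inhibition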
[32] = HepG2 cell cytotoxicity, dose response, cytotoxicity control for Shn3 inhibitor project, CellTiter-Glo, cherry-picked (AID 624134); type: functional, cell-based
[33] = CEM21 cell cytotoxicity, dose response, cytotoxicity control, plate reader, dry powder (AID 687026); type: functional, cell-based
[34] = HepG2 cell cytotoxicity, dose response, cytotoxicity control, cherry-picked samples (AID 1159577); type: functional, cell-based
[35] = Vero cell cytotoxicity, dose response, cytotoxicity control for Vif-APOBEC3G degradation inhibitor project, Vero cells (AID 1117358); type: functional; settings: Human immunodeficiency virus 1, Vero

Cn1/c(=N\C(=O)c2ccco2)sc2ccccc21
IC50 [1]: > 67.5 µM (inactive) | EC50 [2]: > 67.5 µM (inactive)

O=C(C1CCCN(Cc2ccc(Cl)cc2)C1)N1CCCCC1 (configuration not stated)
EC50 [3]: > 30 µM (not active) | EC50 (cells): 0.055 µM (active) | EC50 [4]: < 0.1 µM (active)

O=C(NCC(c1cccnc1)N1CCN(c2ccccc2F)CC1)OCc1ccccc1 (configuration not stated)
EC50 [3]: > 60 µM (not active) | EC50 (cells): 0.071 µM (active) | EC50 [4]: < 0.1 µM (active)

C[C@@H]1CN([C@H](C)CO)S(=O)(=O)c2ccc(C#C[C@@H](C)O)cc2O[C@H]1CN(C)Cc1ccc(-c2ccccc2)cc1
AC50 [5]: > 52 µM (inactive) | AC50 [6]: > 60 µM (inactive)

c1ccc(-n2nnc(-c3cccnc3)n2)cc1
IC50 (Bcl-2-related protein A1 [7]): > 100 µM (not active) | IC50 (Bcl-2-related protein A1 [8]): > 100 µM (not active) | AC50 (HeLa): 213 µM (active)

CCOC(=O)c1c(C)[nH]c(N=Nc2ccc(C)cc2)c1C
EC50 [9]: 0.387 µM (active) | EC50 [10]: < 0.1 µM (active) | EC50 [11]: 0.3 µM (active) | EC50 [12]: 0.305 µM (active)

CCOC(=O)C1CCN(C(=O)Nc2ccc3nc(-c4ccco4)c(-c4ccco4)nc3c2)CC1
IC50 [13]: > 10 µM (not active) | IC50 [14]: 1.46 µM (active) | IC50 (Protein Tat): 2.01 µM (inconclusive) | IC50 [15]: 21.2 µM (inactive)

CCCNC(=O)N1[C@H](C#N)[C@H](c2ccc(-c3cccc(OC)c3)cc2)[C@@H]1CO
AC50 [16]: 0.171 µM (active) | AC50 [17]: 25.5 µM (active) | AC50 [18]: 0.56 µM (active) | AC50 [19]: 90.7 µM (active) | AC50 [20]: 0.168 µM (active) | AC50 [21]: 0.278 µM (active) | AC50 [22]: 1.4 µM (active)

C[C@H](O)C#Cc1ccc2c(c1)O[C@H](CN(C)Cc1ccc(-c3ccccc3)cc1)[C@@H](C)CN([C@H](C)CO)S2(=O)=O
AC50 [23]: 7.51 µM (active) | AC50 [24]: 16.7 µM (active) | AC50 [5]: 35.1 µM (active) | AC50 (Paired box protein Pax-8): 15.9 µM (active) | AC50 [6]: 59.6 µM (active) | AC50 [25]: 6.13 µM (active)

COc1ccccc1Oc1ccc(S(=O)(=O)NCc2ccccn2)cc1
AC50 [17]: 14.8 µM (active) | IC50 [26]: > 100 µM (not active) | AC50 [27]: 25.1 µM (active)

Cc1nn(CC(=O)OC(C)C(=O)Nc2ccccc2[N+](=O)[O-])c(C)c1[N+](=O)[O-] (configuration not stated)
IC50 [1]: > 67.5 µM (inactive) | EC50 [2]: > 67.5 µM (inactive)

COc1ccc(CC(=O)Nc2cccc(S(=O)(=O)N3CCCCCC3)c2)cc1OC
AC50 [28]: 30 µM (active) | AC50 (INS1): 6.12 µM (active) | AC50 [17]: 3.47 µM (active) | IC50 (Protein Wnt-3a): 1.73 µM (active) | AC50 [29]: 7.05 µM (active) | AC50 [30]: 2.27 µM (active) | AC50 [31]: > 70 µM (inactive) | AC50 [32]: 2.12 µM (active) | AC50 [33]: > 70 µM (inactive)

Clc1ccccc1Cn1nnc2c(NCCN3CCOCC3)ncnc21
IC50 [26]: > 100 µM (not active)

COc1ccc2c3c(n(C)c2c1)[C@@H](CO)NCC31CN(Cc2ccc(-c3ccccn3)cc2)C1
AC50 [34]: 20.4 µM (active) | AC50 [18]: 1.66 µM (active)

CCOc1c(OC)cccc1C1CC(=O)Nc2cc3c(cc21)OCCO3 (configuration not stated)
CC50 [35]: > 40 µM (active)
